Laboratory results: US20160102074A1, “SUBSTITUTED AMIDE COMPOUNDS” (PFIZER INC., priority 2014, published 2016)

What was measured:
PCSK9 = PCSK9 lowering in sandwich culture human hepatocytes (SCHH); type: cell-based; conditions: sandwich culture primary cryopreserved human hepatocytes, secreted PCSK9 by AlphaLISA
Method: PCSK9 Lowering and Compound Concentration Determination in Sandwich Culture Human Hepatocytes (SCHH)
Test compound in-vitro pharmacokinetic and pharmacodynamic relationships were measured in sandwich culture primary cryopreserved human hepatocytes. Within these studies SCHH cells (BD Biosciences IVT) were thawed at 37° C. then placed on ice, after which the cells were added to pre-warmed (37° C.) In VitroGRO-HT media and centrifuged at 50×g for 3 min. The cell pellet was re-suspended to 0.8×10^6 cells/mL in InVitroGRO-CP plating medium and cell viability determined by trypan blue exclusion. On day 1, hepatocyte suspensions were plated in BioCoat 96-well plates at a density of 80000 cells/well in a volume of 0.1 mL/well. After 18 to 24 hours of incubation at 37° C. in 5% CO2, cells were overlaid with ice-cold 0.25 mg/mL BD Matrigel Matrix Phenol Red-Free in incubation medium at 0.1 mL/well. Cultures were maintained at 37° C. in 5% CO2 in InVitroGRO-HI (FBS-free media), which was replaced every 24 hours and time course treatments were initiated on day 5. […] Percent PCSK9 lowering versus vehicle treated cells was then determined for each time point and the maximum response (and the corresponding concentration and time when observed) is reported under the Sandwich Culture Hepatocyte (SCHH) PCSK9 lowering summarized in Table 3. […]

human PCSK9 = experiment: In vivo plasma PCSK9 lowering in humanized PCSK9 mice; design: species or system mouse; conditions: hPCSK9 mice, single oral dose 500 mg/kg, relative to hour zero (baseline) levels
From the text: A humanized PCSK9 mouse model was developed to assess compound activity in vivo. This model was established by first generating a transgenic mouse containing the full-length human PCSK9 gene and its promoter through pronuclear injection of the bacterial artificial chromosome (BAC), RP11-627J9, into C57B16J mice. Mice containing the human PCSK9 transgene were then bred with PCSK9 knockout mice on a 129/C57BL6J background (Rashid S, Curtis D E, Garuti R, et al. Decreased plasma cholesterol and hypersensitivity to statins in mice lacking Pcsk9. Proc Natl Acad Sci USA 2005; 102(15):5374-9). […] For example, ethyl (S)-1-{5-[4-(4-{(3-chloropyridin-2-yl)[(3R)-piperidin-3-yl]carbamoyl}-2-fluorophenyl)-1-methyl-1H-pyrazol-5-yl]-1H-tetrazol-1-yl}ethyl carbonate (the parent molecule) was dosed orally and plasma and liver concentrations were measured for the metabolite, N-(3-chloropyridin-2-yl)-3-fluoro-4-[1-methyl-5-(2H-tetrazol-5-yl)-1H-pyrazol-4-yl]-N-[(3R)-piperidin-3-yl]benzamide. Quantitation of human plasma PCSK9 was performed using a commercially available sandwich ELISA kit (R&D Systems, DPC900) incorporating a horse radish peroxidase (HRP) conjugated secondary antibody (R&D Systems, DPC900) to generate a colorimetric signal proportional to PCSK9 concentration per the manufacturer's protocol. […]

| Compound | IC50 (PCSK9) [µM] | Percent Plasma PCSK9 Lowering at 4 hours (human PCSK9) [%] |
| --- | --- | --- |
| Cn1ncc(-c2ccc(C(=O)N(c3ncccc3Cl)[C@@H]3CCCNC3)cc2F)c1-c1nn[nH]n1 [Example 3, N-(3-chloropyridin-2-yl)-3-fluoro-4-[1-methyl-5-(2H-tetrazol-5-yl)-1H-pyrazol-4-yl]-N-[(3R)-piperidin-3-yl]benzamide] | 63.4 |  |
| CCOC(=O)O[C@@H](C)n1nnnc1-c1c(-c2ccc(C(=O)N(c3ncccc3Cl)[C@@H]3CCCNC3)cc2)cnn1C [Example 6, ethyl (S)-1-{5-[1-methyl-4-(4-{(3-chloropyridin-2-yl)[(3R)-piperidin-3-yl]carbamoyl}phenyl)-1H-pyrazol-5-yl]-1H-tetrazol-1-yl}ethyl carbonate] |  | 71 |
| CCOC(=O)O[C@@H](C)n1nnnc1-c1c(-c2ccc(C(=O)N(c3ncccc3Cl)[C@@H]3CCCNC3)cc2F)cnn1C [Example 7, ethyl (S)-1-{5-[4-(4-{(3-chloropyridin-2-yl)[(3R)-piperidin-3-yl]carbamoyl}-2-fluorophenyl)-1-methyl-1H-pyrazol-5-yl]-1H-tetrazol-1-yl}ethyl carbonate] |  | 72 |
